Entries after “also recorded” stand apart in the source; their conditions may differ.
Experiments:
Format in all cases: cell-based, human
[1] = tested on: non-myeloma bone marrow cells; assay: Ex vivo survival of non-myeloma bone marrow cells; details: bone marrow cells of 10 myeloma patients, 5 days, 1, 3.3, 10 μM
Description: (§1) Bone marrow cells from 10 patients with multiple myeloma (5 patients at diagnosis and 5 relapsing patients) were harvested and mononuclear cells isolated by ficoll hypaque centrifugation.
(§2) At day 5, cell numbers were counted and the percentage and counts of myeloma cells were determined by FACS staining using an anti-CD138 monoclonal antibody. This made it possible to assay for viable myeloma cells as CD138 is lost on pre-apoptotic myeloma cells (Jourdan, M. et al. (1998) Br. J. Haematol., 100, 637-648). The percentage and count of CD34 hematopoietic progenitors was also determined with an anti-CD34 monoclonal antibody and FACS labeling.
(§3) Bone marrow mononuclear cells from 5 patients with newly diagnosed multiple myeloma or from 5 patients with relapsing multiple myeloma were cultured for 5 days with culture medium and 10% fetal calf serum. […] At the end of culture, cells were counted. Viable myeloma cells were determined using FACS labeling with anti-CD138 monoclonal antibody, as well as viable hematopoietic stem cells using an anti-CD34 monoclonal antibody. Results are expressed as the percentage of viable myeloma cells, non-myeloma cells, or CD34 cells compared to the control culture group without inhibitor.

[2] = tested on: myeloma cell lines (XG-3 and XG-12); assay: Cells in S phase (BrdU) in myeloma cell lines; details: XG-3 and XG-12, IC10, IC50, IC90 doses
Description: The cell cycle distribution of the cell lines was assessed by flow cytometry analysis by propidium iodide (PI) and bromodeoxyuridine (BrdU) double-staining. Thirty minutes before stopping the culture, BrdU (10 μM) were added to the cultures and then the cells were collected by centrifugation, washed twice in phosphate buffer saline (PBS) and fixed in 70% ethanol for 20 minutes at room temperature. After two washes with PBS, cells were resuspended in 50 μL of 3N HCl, 0.5% Tween 20 and incubated 20 minutes at 20° C. to denature DNA. […] The fluorescence of FL1-H (BrdU) and FL2-A (PI) were analyzed on a FACScan flow cytometer using Cell Quest software (Becton Dickinson).
(§4) Two myeloma cell lines (XG-3 and XG-12) that are sensitive to compound A (1-(4-{4-[4-(4-chlorophenyl)-pyrimidin-2-ylamino]-benzoyl}-piperazin-1-yl)-ethanone) were selected for the study. To assess the effect of compound A on myeloma cell survival, the percentage apoptotic cells was determined using binding of annexin V to apoptotic cells. The effect of compound A on the cell cycle was assessed by evaluating the percentage of cells in the S phase of the cell cycle by incorporation of BrdU-FITC. Apoptosis, cell cycle and cell numeration were evaluated daily on a four day culture period on the cell lines using the IC10, IC50 and I90 respective doses of compound A.

10 myeloma cell lines = assay: Cell proliferation assay, mean over 10 myeloma cell lines; details: mean determined on 10 myeloma cell lines
Description: Myeloma cells were harvested in the exponential growth phase (at day 3 after culture passage when the cell concentration is around 5×10^5 cells/ml). Cells were washed twice, cultured for 3 hours in RPMI1640 and 10% FCS, washed twice. This makes it possible to remove cell-bound growth factors (in particular recombinant IL-6). Then cells are plated in 96-well flat-bottomed microplates at various concentrations depending on their doubling time: • 5×10^3 cells/well in 100 μl for the cell lines: XG-1, XG-7 • 10^4 cells/well in […] for the cell lines: XG-2, XG-4, XG-6, XG-11, PRMI8226, L363 • 2×10^4 cells/well in 100 μl for the cell lines: XG-3, XG-12, XG-13, XG-14, XG-19, XG-20
The culture medium used were: • PRMI1640, 10% FCS and 0.5 ng/ml of IL-6 for XG-1, XG-2, XG-3, XG-4, XG-6, XG-7, XG-11, XG-12, XG-13, XG-19, XG-20 cells • X-VIVO20 and 0.5 ng/ml IL-6 for XG-14 cells • PRMI1640 and 10% FCS for RPMI8226 and L363 cells
The diluted compounds, DMSO or control culture medium were added in 100 μl at the start of the culture. Three culture wells were done for one compound dilution and the experiments were done twice (finally six culture wells for one compound dilution).
Cells were cultured for 4 days. Eight hours before the end of the culture, 0.5 μCi of tritiated thymidine were added in 50 μl of RPMI1640 and 10% FCS. Cells were then extracted with a cell collector and the thymidine incorporation was determined using a beta cell counter.
For each experiment, the mean tritiated thymidine incorporations (mean values determined on three culture wells) were plotted against the logarithmic concentrations of the compound. The curves were fitted with exponential regression, which was determined using the concentrations defining the inhibition response (usually 3-4 concentrations).
The concentrations yielding 50% and 90% inhibition of the proliferation of myeloma cells were determined with these regression curves.

XG-3 myeloma cell line = assay: Cell cycle measurement (BrdU/PI, S phase), XG-3; details: day 3 of culture
Description: The cell cycle distribution of the cell lines was assessed by flow cytometry analysis by propidium iodide (PI) and bromodeoxyuridine (BrdU) double-staining. Thirty minutes before stopping the culture, BrdU (10 μM) were added to the cultures and then the cells were collected by centrifugation, washed twice in phosphate buffer saline (PBS) and fixed in 70% ethanol for 20 minutes at room temperature. After two washes with PBS, cells were resuspended in 50 μL of 3N HCl, 0.5% Tween 20 and incubated 20 minutes at 20° C. to denature DNA. The cells were then recovered by centrifugation, resuspended in 250 μL of 10 mM sodium tetraborate to neutralize the reaction, washed twice with PBS, 0.05% Tween 20, and incubated with 20 μL of anti-BrdU-FITC (BD Biosciences). After two additional washes, the cells were resuspended in 500 μL of PBS, 0.05% Tween 20 containing 10 μg/ml PI. The fluorescence of FL1-H (BrdU) and FL2-A (PI) were analyzed on a FACScan flow cytometer using Cell Quest software (Becton Dickinson).
as §4

[3] = tested on: myeloma cell lines (XG-3 and XG-12); assay: Induction of apoptosis (annexin V) in myeloma cell lines; details: XG-3 and XG-12, IC10, IC50, IC90 doses, four day culture
Source text: Apoptotic cells were detected using fluorescein isothiocyanate-labelled annexin V (FITC-annexin-V, Boehringer Mannheim). Annexin V has a high affinity for phosphatidylserine present on the outer cytoplasmic membrane of apoptotic cells. Cells were washed, labeled with FITC-annexin-V according to the manufacturer's recommendations and analyzed with a FACScan flow cytometer using Cell Quest software (Becton Dickinson, Moutain View, Calif., USA).
as §4

[4] = tested on: CD138+ primary myeloma cells; assay: Ex vivo survival of primary myeloma cells in bone marrow culture; details: bone marrow cells of 10 myeloma patients, 5 days, 1, 3.3, 10 μM
Description: as §1, §2, §3

CC(=O)N1CCN(C(=O)c2ccc(Nc3nccc(-c4ccc(Cl)cc4)n3)cc2)CC1 [Compound A, 1-(4-{4-[4-(4-Chloro-phenyl)-pyrimidin-2-ylamino]-benzoyl}-piperazin-1-yl)-ethanone]
survival of other (non-myeloma) bone marrow cells [1]: without affecting the survival of other bone marrow cells
number of cells in the S phase of the cell cycle [2]: induced a decrease in the number of cell in the S phase
IC50 (10 myeloma cell lines; Homo sapiens, read-out: mean concentration yielding 50% inhibition): 3.3 µM
mean concentration yielding 10% inhibition (10 myeloma cell lines): 1 µM
mean concentration yielding 90% inhibition (10 myeloma cell lines): 10 µM
S phase (%) percentage of cells in the S phase (XG-3 myeloma cell line; XG-3, compound A at IC10 concentration): 32.1%
S phase (%) percentage of cells in the S phase (XG-3 myeloma cell line; XG-3, compound A at IC50 concentration): 29.2%
S phase (%) percentage of cells in the S phase (XG-3 myeloma cell line; XG-3, compound A at IC90 concentration): 15.3%
induction of apoptosis of myeloma cell lines [3]: induced apoptosis of myeloma cell lines; also recorded: dose- and time-dependent
survival of primary myeloma cells [4]: inhibits the survival of primary myeloma cells

Source: patent US20100069316A1, “TREATMENT FOR MULTIPLE MYELOMA” (Ares Trading S.A., priority 2006, published 2010)
